Biological target: T1, Smc1/Smc3 heterodimer with Scc1-C (cohesin) (Saccharomyces cerevisiae, UniProt P32908+P47037, P32908:L1129V, form not given)
T1 construct: N-terminal tags; Sf9 insect cells; fluorescently labelled for MST; with Sister chromatid cohesion protein 1
T1 sequence (P32908 1-1225 L1129V): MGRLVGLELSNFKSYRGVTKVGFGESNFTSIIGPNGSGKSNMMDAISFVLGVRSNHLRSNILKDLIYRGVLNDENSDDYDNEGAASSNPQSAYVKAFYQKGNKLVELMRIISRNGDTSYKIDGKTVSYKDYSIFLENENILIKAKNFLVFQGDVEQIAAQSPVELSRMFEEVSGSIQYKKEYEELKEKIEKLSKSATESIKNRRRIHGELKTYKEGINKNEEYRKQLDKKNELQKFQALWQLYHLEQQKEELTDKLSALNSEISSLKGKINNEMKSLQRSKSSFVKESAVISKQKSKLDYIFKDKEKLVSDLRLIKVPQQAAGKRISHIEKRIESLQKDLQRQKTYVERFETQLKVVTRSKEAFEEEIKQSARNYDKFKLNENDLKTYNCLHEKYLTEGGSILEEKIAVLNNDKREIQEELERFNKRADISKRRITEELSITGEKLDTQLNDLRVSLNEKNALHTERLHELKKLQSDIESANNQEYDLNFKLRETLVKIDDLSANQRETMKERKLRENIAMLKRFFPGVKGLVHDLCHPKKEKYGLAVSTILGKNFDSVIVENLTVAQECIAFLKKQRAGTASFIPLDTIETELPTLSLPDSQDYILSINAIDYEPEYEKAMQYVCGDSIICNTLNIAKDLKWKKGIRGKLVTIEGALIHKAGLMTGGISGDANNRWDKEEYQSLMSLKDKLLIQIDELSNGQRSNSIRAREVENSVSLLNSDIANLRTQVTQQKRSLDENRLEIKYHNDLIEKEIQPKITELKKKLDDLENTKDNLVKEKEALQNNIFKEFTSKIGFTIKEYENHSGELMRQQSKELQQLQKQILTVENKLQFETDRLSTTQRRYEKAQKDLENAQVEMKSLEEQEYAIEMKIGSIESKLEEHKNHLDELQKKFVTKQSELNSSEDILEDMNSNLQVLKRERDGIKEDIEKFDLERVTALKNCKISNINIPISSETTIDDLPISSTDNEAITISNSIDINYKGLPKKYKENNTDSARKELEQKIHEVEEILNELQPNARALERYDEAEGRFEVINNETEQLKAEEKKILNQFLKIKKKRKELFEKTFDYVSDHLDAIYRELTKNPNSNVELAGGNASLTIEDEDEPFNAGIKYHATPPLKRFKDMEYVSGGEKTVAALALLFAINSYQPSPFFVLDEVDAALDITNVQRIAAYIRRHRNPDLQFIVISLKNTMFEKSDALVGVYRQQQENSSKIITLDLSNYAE
T1 sequence (P47037 1-1230): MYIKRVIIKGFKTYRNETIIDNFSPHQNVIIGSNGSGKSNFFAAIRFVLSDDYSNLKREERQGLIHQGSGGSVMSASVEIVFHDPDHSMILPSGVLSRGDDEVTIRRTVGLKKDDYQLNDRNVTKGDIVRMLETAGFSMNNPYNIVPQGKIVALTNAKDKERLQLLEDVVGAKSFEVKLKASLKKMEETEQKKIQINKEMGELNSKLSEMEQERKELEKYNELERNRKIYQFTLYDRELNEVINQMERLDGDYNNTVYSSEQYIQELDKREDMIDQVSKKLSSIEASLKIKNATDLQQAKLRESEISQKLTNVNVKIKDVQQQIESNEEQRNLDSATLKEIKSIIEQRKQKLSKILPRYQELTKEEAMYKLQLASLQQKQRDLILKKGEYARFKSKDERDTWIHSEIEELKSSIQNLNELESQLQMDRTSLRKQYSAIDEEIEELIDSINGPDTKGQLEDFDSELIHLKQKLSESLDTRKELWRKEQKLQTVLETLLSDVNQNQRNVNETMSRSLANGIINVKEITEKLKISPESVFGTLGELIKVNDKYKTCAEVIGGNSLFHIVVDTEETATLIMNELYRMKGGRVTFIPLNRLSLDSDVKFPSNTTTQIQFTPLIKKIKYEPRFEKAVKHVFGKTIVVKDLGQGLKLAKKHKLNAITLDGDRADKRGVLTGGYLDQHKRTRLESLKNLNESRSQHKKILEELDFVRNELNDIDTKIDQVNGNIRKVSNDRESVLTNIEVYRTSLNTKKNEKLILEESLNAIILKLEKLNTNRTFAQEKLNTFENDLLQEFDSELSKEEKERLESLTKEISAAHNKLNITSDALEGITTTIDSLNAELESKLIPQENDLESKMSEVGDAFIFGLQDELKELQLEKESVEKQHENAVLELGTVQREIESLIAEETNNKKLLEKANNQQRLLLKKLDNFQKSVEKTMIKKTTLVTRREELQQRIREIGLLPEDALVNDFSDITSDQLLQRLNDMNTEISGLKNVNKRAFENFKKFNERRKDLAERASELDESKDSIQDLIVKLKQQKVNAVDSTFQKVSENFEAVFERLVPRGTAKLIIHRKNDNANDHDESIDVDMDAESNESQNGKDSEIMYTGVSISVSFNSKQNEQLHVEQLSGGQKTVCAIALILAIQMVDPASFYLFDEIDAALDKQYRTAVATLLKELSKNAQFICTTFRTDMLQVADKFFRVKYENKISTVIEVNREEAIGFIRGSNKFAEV
T1 sequence (Q12158 1-566 partner): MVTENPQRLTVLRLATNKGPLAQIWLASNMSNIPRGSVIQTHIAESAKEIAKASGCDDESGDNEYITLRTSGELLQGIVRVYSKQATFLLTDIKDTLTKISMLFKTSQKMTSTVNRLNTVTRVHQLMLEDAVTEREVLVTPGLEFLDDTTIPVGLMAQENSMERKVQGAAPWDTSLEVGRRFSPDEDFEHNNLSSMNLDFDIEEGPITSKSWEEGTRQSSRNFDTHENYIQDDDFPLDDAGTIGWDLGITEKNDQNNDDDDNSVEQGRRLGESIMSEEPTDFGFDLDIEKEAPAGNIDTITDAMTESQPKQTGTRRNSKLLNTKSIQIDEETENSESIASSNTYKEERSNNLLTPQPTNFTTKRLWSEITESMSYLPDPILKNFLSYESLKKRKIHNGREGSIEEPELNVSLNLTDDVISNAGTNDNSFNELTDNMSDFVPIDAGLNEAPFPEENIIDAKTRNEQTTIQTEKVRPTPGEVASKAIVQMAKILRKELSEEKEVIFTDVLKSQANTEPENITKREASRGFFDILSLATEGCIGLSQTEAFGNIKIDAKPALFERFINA
Experiment: microscale thermophoresis
Type: binding
Conditions: fluorescently labelled protein; Smc1 co-purified with Scc1-C, plus Smc3; read-out: affinity
Description: microscale thermophoresis on Smc1/Smc3 heterodimer with Scc1-C (cohesin) | Smc1 L1129V, D1164E and E1158Q mutants all had wild-type-like affinity to both ATP and ADP | wild-type and mutant cohesin complexes appear to have similar affinities to ADP

| Kd [µM] | Structure (SMILES) |
| --- | --- |
| > 1000 | Nc1ncnc2c1ncn2[C@@H]1O[C@H](COP(=O)(O)OP(=O)(O)O)[C@@H](O)[C@H]1O [ADP] |
| 667 ± 211 | Nc1ncnc2c1ncn2[C@@H]1O[C@H](COP(=O)(O)OP(=O)(O)OP(=O)(O)O)[C@@H](O)[C@H]1O [ATP] |
